Laboratory results from article PMC4770093, “The role of kinetic context in apparent biased agonism at GPCRs” (Nature Communications, 2016).
Where “and” joins values, the source holds several entries; their conditions need not be identical. Equal entries are not always repeated.

Experiments:
[1] = target: SNAP-tagged human dopamine D2L (Homo sapiens, UniProt P14416); assay: Tag-lite PPHT-red competition kinetic binding (HTRF); details: PPHT-red tracer, Tag-lite
Experimental: To terbium label the SNAP-CHO-D2L cells, cell culture medium was removed from the T175 cm^2 flasks containing confluent adherent SNAP-CHO-D2L cells. Twelve millilitres of Tag-lite labelling medium containing 100 nM of SNAP-Lumi4-Tb was added to the flask and incubated for 1 h at 37 °C under 5% CO2. Cells were then washed 2 × in 15 ml PBS (GIBCO, Invitrogen, Paisley, UK) to remove the excess of SNAP-Lumi4-Tb and detached using 5 ml of enzyme-free Hank's-based cell dissociation buffer (GIBCO, Invitrogen, Paisley, UK) and collected in a vial containing 5 ml of DMEM/Nutrient F-12 Ham, 2 mM glutamine supplemented 10% FCS. Cells were pelleted by centrifugation (5 min at 1,500 r.p.m.) and the pellets were frozen to −80 °C before preparation of membranes.
All subsequent steps described were conducted at 4 °C, to avoid receptor degradation. Twenty millilitres of wash buffer (10 mM HEPES and 10 mM EDTA pH 7.4) was added to the pellet of terbium-labelled cells (equivalent to 1 × t175 cm^2). […] The supernatant was discarded and the pellet was homogenized and centrifuged as described above in wash buffer. The final pellet was suspended in ice-cold 10 mM HEPES and 0.1 mM EDTA pH 7.4, at a concentration of 5–10 mg m^−1. Protein concentration was determined by the bicinchoninic acid assay using BSA as a standard and aliquots maintained at −80 °C until required. Before their use, the frozen membranes were thawed and the membranes suspended in the assay buffer at a membrane concentration of 0.1 mg m^−1.
GppNHp was included to remove the G protein-coupled population of receptors that can result in two binding sites in membrane preparations, because the Motulsky–Mahan model is only appropriate for ligands competing at a single site. […] Both fluorescent ligands and unlabelled compounds were diluted in the binding assay buffer.
Kinetics acquisitions at intervals of 20 s were recorded using the standard settings of the reader for HTRF measurements. […] Specific binding was determined by subtracting the nonspecific HTRF ratio from the total HTRF ratio.
To accurately determine association rate (kon) and dissociation rate (koff) values, the observed rate of association (kob) was calculated using at least four different concentrations of PPHT-red. The appropriate concentration of PPHT-red was incubated in a 384-well Optiplate with human SNAP-D2LR-CHO cell membranes (2 μg per well) in assay binding buffer at 37 °C (final assay volume, 40 μl). The degree of PPHT-red bound to the receptor was assessed at multiple time points by HTRF detection, to allow construction of association kinetic curves. The resulting data were globally fitted to the association kinetic model (equation (8)) to derive a single best-fit estimate for kon and koff as described under ‘Data analysis'.
On the same 384-well Optiplate plate, the kinetic parameters of unlabelled ligand were assessed using a competition kinetic binding assay. This approach involves the simultaneous addition of both fluorescent ligand and competitor to receptor preparation so that at t=0 all receptors are unoccupied. […] The degree of PPHT-red bound to the receptor was assessed at multiple time points by HTRF detection. Nonspecific binding was determined as the amount of HTRF signal detected in the presence of spiperone (1 μM) and was subtracted from each time point. Each time point was conducted on the same 384-well plate incubated at 37 °C with shaking (100 r.p.m.) after every cycle.
Data were globally fitted using equation (7), to simultaneously calculate kon and koff.

D2R = assay: Simulation of receptor occupancy over time from kon and koff; details: simulation with a KD concentration of each agonist
How it was run: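 Receptor occupancy over time was simulated from kon and koff for each agonist at a concentration equal to its KD. The kinetic constants came from a Tag-lite competition kinetic binding assay on SNAP-tagged D2R with fluorescent agonist PPHT as tracer, given as mean±s.e.m. of three experiments.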

D2LR [2] = target: T1, D2LR (Homo sapiens, UniProt P14416); assay: Gαi1 G protein activation (BRET); type: cell-based; set-up: expressed in transfected cells; details: 5 minute timepoint
T1 sequence (P14416 whole entry): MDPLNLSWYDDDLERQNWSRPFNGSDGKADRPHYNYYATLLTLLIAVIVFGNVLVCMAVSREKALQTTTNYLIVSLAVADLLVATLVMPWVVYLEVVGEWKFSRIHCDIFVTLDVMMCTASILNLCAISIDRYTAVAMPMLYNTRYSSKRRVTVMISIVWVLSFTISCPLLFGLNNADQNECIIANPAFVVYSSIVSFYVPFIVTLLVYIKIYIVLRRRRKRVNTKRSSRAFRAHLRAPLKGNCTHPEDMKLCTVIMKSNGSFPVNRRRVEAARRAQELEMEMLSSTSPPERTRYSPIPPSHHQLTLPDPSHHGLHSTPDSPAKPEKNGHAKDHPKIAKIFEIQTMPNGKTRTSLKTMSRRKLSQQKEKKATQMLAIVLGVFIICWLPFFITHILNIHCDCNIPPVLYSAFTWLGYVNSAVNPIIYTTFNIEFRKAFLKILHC
Experimental: G protein activation. Flp-In-CHO cells stably expressing the D2LR were seeded at a density of 2,000,000 cells per 10-cm dish and were transfected the following day using polyethylenimine as the transfection reagent. […] Twenty-four hours after transfection, the cells were plated into 96-well CulturPlates (PerkinElmer) and grown overnight. The cells were equilibrated in Hank's balanced salt solution at 37 °C before starting the experiment. The cells were stimulated with the agonists for the indicated timeframes when the BRET readings were captured. Coelenterazine (Promega) was added at a final concentration of 5 μM at least 3 min before measurement. […] Net BRET was determined by subtraction of the vehicle control from the agonist-induced response.

D2LR [3] = target: T1, D2LR; assay: Inhibition of forskolin-induced cAMP production (BRET CAMYEL biosensor); details: for Emax cAMP: relative to the maximal response of ropinirole; for Inhibition of cAMP production measured using a CAMYEL BRET biosensor, Net BRET: single experiments n = 1, 2, 3
Experimental: Flp-In-CHO cells stably expressing the D2LR were seeded at a density of 2,000,000 cells per 10-cm dish and were transfected the following day using polyethylenimine as the transfection reagent. The cells were transfected with 3 μg CAMYEL, to allow the detection of cAMP levels within the cells. Twenty-four hours after transfection, the cells were plated into 96-well CulturPlates (PerkinElmer) and grown overnight. The cells were equilibrated in Hank's balanced salt solution at 37 °C (or 25 °C when indicated) before starting the experiment. The cells were co-stimulated with the agonists and 10 μM forskolin for the indicated timeframes when the BRET readings were captured. Coelenterazine (Promega) was added at a final concentration of 5 μM at least 3 min before measurement. […] Net BRET was determined by subtraction of the vehicle control co-added with 10 μM forskolin.

SNAP-tagged human dopamine D2L, sequence (P14416 whole entry): as above

CN1CCN(c2cccc3[nH]c(=O)oc23)CC1 [Pardoprunox, pardoprunox]
pKd (affinity determined from kinetic parameters) [1]: 7.75
koff ([1]; 100 μM GppNHp, 37 °C): 0.038 ± 0.00933 s⁻¹
time to maximal receptor occupancy (D2R): ≤ 1 min
Log(τ/KA) Gαi1 activation (D2LR [2]; Flp-In-CHO-D2LR): 8.10 ± 0.13
ΔLog(τ/KA) Gαi1 activation (D2LR [2]; dopamine as reference agonist): 0.93 ± 0.16
pEC50 cAMP (D2LR [3]; 2 min): 8.98
Emax cAMP (D2LR [3]; 2 min): 87 ± 1.9
pEC50 cAMP (D2LR [3]; 5 min): 8.69
Emax cAMP (D2LR [3]; 5 min): 87 ± 1.5
Log(τ/KA) cAMP (D2LR [3]; 5 minute timepoint, Flp-In-CHO-D2LR): 8.64 ± 0.05
ΔLog(τ/KA) cAMP (D2LR [3]; 5 minute timepoint, dopamine as reference agonist): 0.58 ± 0.07
pEC50 cAMP (D2LR [3]; 10 min): 8.39
Emax cAMP (D2LR [3]; 10 min): 86 ± 1.4
pEC50 cAMP (D2LR [3]; 15 min): 8.33
Emax cAMP (D2LR [3]; 15 min): 87 ± 1.6
pEC50 cAMP (D2LR [3]; 30 min): 8.46
Emax cAMP (D2LR [3]; 30 min): 85 ± 2.1
pEC50 cAMP (D2LR [3]; 45 min): 8.03
Emax cAMP (D2LR [3]; 45 min): 82 ± 1.4
pEC50 cAMP (D2LR [3]; 60 min): 7.82
Emax cAMP (D2LR [3]; 60 min): 74 ± 1.8
pEC50 cAMP (D2LR [3]; 75 min): 8.04
Emax cAMP (D2LR [3]; 75 min): 84 ± 2.2
pEC50 cAMP (D2LR [3]; 90 min): 7.83
Emax cAMP (D2LR [3]; 90 min): 81 ± 1.6
Inhibition of cAMP production measured using a CAMYEL BRET biosensor, Net BRET (D2LR [3]; time 2.21667 mins): 0.09312 and 0.1119 and 0.09462
Inhibition of cAMP production measured using a CAMYEL BRET biosensor, Net BRET (D2LR [3]; time 2.58333 mins): 0.09848 and 0.1094 and 0.0984
Inhibition of cAMP production measured using a CAMYEL BRET biosensor, Net BRET (D2LR [3]; time 2.95 mins): 0.1044 and 0.1291 and 0.0949
Inhibition of cAMP production measured using a CAMYEL BRET biosensor, Net BRET (D2LR [3]; time 3.31667 mins): 0.1072 and 0.1248 and 0.1125
Inhibition of cAMP production measured using a CAMYEL BRET biosensor, Net BRET (D2LR [3]; time 3.68333 mins): 0.1144 and 0.1213 and 0.1135
Inhibition of cAMP production measured using a CAMYEL BRET biosensor, Net BRET (D2LR [3]; time 4.05 mins): 0.1221 and 0.1382 and 0.1172
Inhibition of cAMP production measured using a CAMYEL BRET biosensor, Net BRET (D2LR [3]; time 4.41667 mins): 0.1176 and 0.1369 and 0.114
Inhibition of cAMP production measured using a CAMYEL BRET biosensor, Net BRET (D2LR [3]; time 4.78333 mins): 0.1323 and 0.136 and 0.1109
Inhibition of cAMP production measured using a CAMYEL BRET biosensor, Net BRET (D2LR [3]; time 5.15 mins): 0.1365 and 0.1389 and 0.1171
Inhibition of cAMP production measured using a CAMYEL BRET biosensor, Net BRET (D2LR [3]; time 5.51667 mins): 0.1301 and 0.1395 and 0.116
Inhibition of cAMP production measured using a CAMYEL BRET biosensor, Net BRET (D2LR [3]; time 5.88333 mins): 0.1412 and 0.1297 and 0.1213
Inhibition of cAMP production measured using a CAMYEL BRET biosensor, Net BRET (D2LR [3]; time 6.25 mins): 0.1339 and 0.1324 and 0.1196
Inhibition of cAMP production measured using a CAMYEL BRET biosensor, Net BRET (D2LR [3]; time 6.61667 mins): 0.1245 and 0.1374 and 0.113
Inhibition of cAMP production measured using a CAMYEL BRET biosensor, Net BRET (D2LR [3]; time 6.98333 mins): 0.1378 and 0.1302 and 0.1147
Inhibition of cAMP production measured using a CAMYEL BRET biosensor, Net BRET (D2LR [3]; time 7.35 mins): 0.1418 and 0.1291 and 0.1123
Inhibition of cAMP production measured using a CAMYEL BRET biosensor, Net BRET (D2LR [3]; time 7.71667 mins): 0.1394 and 0.1366 and 0.1233
Inhibition of cAMP production measured using a CAMYEL BRET biosensor, Net BRET (D2LR [3]; time 8.08333 mins): 0.1443 and 0.1378 and 0.1166
Inhibition of cAMP production measured using a CAMYEL BRET biosensor, Net BRET (D2LR [3]; time 8.45 mins): 0.1408 and 0.1371 and 0.1127
Inhibition of cAMP production measured using a CAMYEL BRET biosensor, Net BRET (D2LR [3]; time 8.81667 mins): 0.144 and 0.1435 and 0.1231
Inhibition of cAMP production measured using a CAMYEL BRET biosensor, Net BRET (D2LR [3]; time 9.18333 mins): 0.1482 and 0.1437 and 0.1124
Inhibition of cAMP production measured using a CAMYEL BRET biosensor, Net BRET (D2LR [3]; time 9.55 mins): 0.1472 and 0.1422 and 0.1225
Inhibition of cAMP production measured using a CAMYEL BRET biosensor, Net BRET (D2LR [3]; time 9.91667 mins): 0.1503 and 0.1391 and 0.1248
Inhibition of cAMP production measured using a CAMYEL BRET biosensor, Net BRET (D2LR [3]; time 10.2833 mins): 0.1418 and 0.1435 and 0.1207
Inhibition of cAMP production measured using a CAMYEL BRET biosensor, Net BRET (D2LR [3]; time 10.65 mins): 0.1434 and 0.1464 and 0.1244
Inhibition of cAMP production measured using a CAMYEL BRET biosensor, Net BRET (D2LR [3]; time 11.0167 mins): 0.1459 and 0.1412 and 0.1263
Inhibition of cAMP production measured using a CAMYEL BRET biosensor, Net BRET (D2LR [3]; time 11.3833 mins): 0.1508 and 0.1374 and 0.1263
Inhibition of cAMP production measured using a CAMYEL BRET biosensor, Net BRET (D2LR [3]; time 11.75 mins): 0.1476 and 0.1469 and 0.1207
Inhibition of cAMP production measured using a CAMYEL BRET biosensor, Net BRET (D2LR [3]; time 12.1167 mins): 0.1454 and 0.1457 and 0.1265
Inhibition of cAMP production measured using a CAMYEL BRET biosensor, Net BRET (D2LR [3]; time 12.4833 mins): 0.14 and 0.1421 and 0.1315
Inhibition of cAMP production measured using a CAMYEL BRET biosensor, Net BRET (D2LR [3]; time 12.85 mins): 0.1413 and 0.1515 and 0.1219
Inhibition of cAMP production measured using a CAMYEL BRET biosensor, Net BRET (D2LR [3]; time 13.2167 mins): 0.1418 and 0.1452 and 0.1337
Inhibition of cAMP production measured using a CAMYEL BRET biosensor, Net BRET (D2LR [3]; time 13.5833 mins): 0.1514 and 0.1571 and 0.1315
Inhibition of cAMP production measured using a CAMYEL BRET biosensor, Net BRET (D2LR [3]; time 13.95 mins): 0.1501 and 0.1517 and 0.1357
Inhibition of cAMP production measured using a CAMYEL BRET biosensor, Net BRET (D2LR [3]; time 14.3167 mins): 0.1522
